± gives the expanded uncertainty stated by the source.
Settings: for kinematic viscosity: Liquid

FCC(F)(F)F [1,1,1,2-tetrafluoroethane]
surface light scattering
Settings	kinematic viscosity [m2/s]	surface tension liquid-gas [mN/m]
302.99 K	1.55e-07 ± 6.2e-09	7.45 ± 0.23
312.86 K	1.41e-07 ± 5.6e-09	6.19 ± 0.19
322.92 K	1.28e-07 ± 5.1e-09	4.95 ± 0.15
332.92 K	1.17e-07 ± 4.7e-09	3.79 ± 0.12
342.9 K	1.07e-07 ± 4.3e-09	2.68 ± 0.08
352.89 K	9.79e-08 ± 3.9e-09	1.65 ± 0.05
363.27 K	8.56e-08 ± 3.4e-09	0.73 ± 0.03
368.26 K	7.9e-08 ± 3.2e-09	0.34 ± 0.02

C=C(F)C(F)(F)F [2,3,3,3-tetrafluoro-1-propene]
light scattering
Settings	kinematic viscosity [m2/s]	surface tension liquid-gas [mN/m]
293.15 K	1.44e-07 ± 5.8e-09	6.82 ± 0.21
303.09 K	1.32e-07 ± 5.3e-09	5.71 ± 0.17
313.2 K	1.22e-07 ± 4.9e-09	4.6 ± 0.14
323.19 K	1.13e-07 ± 4.5e-09	3.55 ± 0.11
333.14 K	1.02e-07 ± 4.1e-09	2.55 ± 0.08
343.11 K	8.99e-08 ± 3.6e-09	1.64 ± 0.05
353.08 K	8.2e-08 ± 3.3e-09	0.81 ± 0.03
358.05 K	7.7e-08 ± 3.1e-09	0.46 ± 0.02
363.05 K	7e-08 ± 2.8e-09	0.15 ± 0.01
365.05 K	6.24e-08 ± 2.6e-09	–

F/C=C/C(F)(F)F [trans-1,3,3,3-tetrafluoropropene]
surface light scattering
Settings	kinematic viscosity [m2/s]	surface tension liquid-gas [mN/m]
295.23 K	1.78e-07 ± 7.1e-09	8.88 ± 0.27
303.19 K	1.61e-07 ± 6.4e-09	7.91 ± 0.24
313.21 K	1.43e-07 ± 5.7e-09	6.66 ± 0.2
323.19 K	1.32e-07 ± 5.3e-09	5.48 ± 0.17
333 K	1.19e-07 ± 4.8e-09	4.36 ± 0.13
343.05 K	1.13e-07 ± 4.5e-09	3.3 ± 0.1
353 K	1.05e-07 ± 4.2e-09	2.26 ± 0.07
363.12 K	9.24e-08 ± 3.7e-09	1.35 ± 0.04
373.14 K	8.17e-08 ± 3.3e-09	0.54 ± 0.02

Source: the NIST ThermoML archive (doi:10.1021/je5001457)
